Measured values reported in patent publication US20110319640A1, “LARGE-SCALE PURIFICATION OF 2-PYRONE-4,6-DICARBOXYLIC ACID” (KABUSHIKI KAISHA TOYOTA JIDOSHOKKI, priority 2007, published 2011).

Test: water solubility of PDC and PDC complex salts (FIG. 2)
Assay type: physicochemical
Details: in water; free compound
Excerpt: Hereinafter, a complex salt formed centering on the Carbonyl group of PDC may be referred to as “a PDC complex salt,” in order to distinguish from a complex salt described in the section of salts of cations. The structure of a […] complex salt is described in many references (for example, Acta. Cryst. (1992) C48, 460-465).

- water solubility: 182 mM
Compound: O=C(O)c1cc(C(=O)O)oc(=O)c1 [free PDC, 2-pyrone-4,6-dicarboxylic acid]
